Reference: patent US20240101548A1, “HYDROXAMATE COMPOUND, PREPARATION METHOD THEREFOR AND APPLICATION THEREOF” (SHENZHEN CHIPSCREEN BIOSCIENCES CO., LTD., priority 2020, published 2024)

How the values were obtained:
[1] = test system: IL-2-induced JAK1/JAK3 signal pathway; experiment: IL-2-induced proliferation of KHYG-1 cells (JAK1/JAK3 signal); assay type: cell-based, human; settings: Homo sapiens; KHYG-1 cell proliferation, IL-2 10 ng/mL, 72 hours; read-out: Inhibition activity IC50 on IL-2-induced JAK1/JAK3 signal pathway
Summary of the method: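 Controls were wells lacking both compound and cytokine (0%) and compound-free IL-2 wells (100%). C50 was calculated from inhibition rates across doses.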

[2] = test system: EPO-induced JAK2 signal pathway; experiment: EPO-induced proliferation of UT-7 cells (JAK2 signal); assay type: cell-based, human; settings: Homo sapiens, UT7; UT-7 cell proliferation, EPO 10 ng/mL, 72 hours; read-out: Inhibition activity IC50 on EPO-induced JAK2 signal pathway
Summary of the method: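 […] was derived from inhibition rates across doses, scaled between wells lacking compound and cytokine (0) and EPO without compound (100), using alamarBlue fluorescence at Ex530/Em590. Compound (final 0-10000 nM) and 10 ng/mL EPO were given to UT-7 cells at 15000 per well for 72 h at 37° C.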

SMILES | IC50 [1] [µM] | IC50 [2] [µM]
CONC(=O)c1cnc(Nc2ccc(C#N)cc2)cc1Nc1ccccc1N(C)S(C)(=O)=O [Example 103, 6-((4-cyanophenyl)amino)-N-methoxy-4-((2-(N-methylmethanesulfonamido)phenyl)amino)nicotinamide] | > 10 | > 10
CONC(=O)c1cnc(Nc2ccc(F)cc2)cc1Nc1ccccc1N(C)S(C)(=O)=O [Example 104, 6-((4-fluorophenyl)amino)-N-methoxy-4-((2-(N-methylmethanesulfonamido)phenyl)amino)nicotinamide] | > 10 | > 10
CONC(=O)c1cnc(NC(=O)[C@H]2CC2(C)C)cc1Nc1ccccc1N(C)S(C)(=O)=O [Example 105, (S)-6-(2,2-dimethylcyclopropyl-1-carboxamido)-N-methoxy-4-((2-(N-methylmethanesulfonamido)phenyl)amino)nicotinamide] | > 10 | > 10
CONC(=O)c1cnc(Nc2ccc(C)cn2)cc1Nc1ccc(C)cc1N(C)S(C)(=O)=O [Example 107, N-methoxy-4-((4-methyl-2-(N-methylmethanesulfonamido)phenyl)amino)-6-((5-methylpyridin-2-yl)amino)nicotinamide] | > 10 | > 10
CCONC(=O)c1cnc(Nc2cccc(F)n2)cc1Nc1ccccc1NS(C)(=O)=O [Example 117, N-ethoxy-6-((6-fluoropyridin-2-yl)amino)-4-((2-(methanesulfonamido)phenyl)amino)nicotinamide] | > 10 | > 10
CCONC(=O)c1cnc(NC(=O)C2CC2)cc1Nc1cc(C)c(C2CC2)cc1N(C)S(C)(=O)=O [Example 120, 6-(cyclopropylcarboxamido)-4-((4-cyclopropyl-5-methyl-2-(N-methylmethanesulfonamido)phenyl)amino)-N-ethoxy nicotinamide] | > 10 | > 10
CCONC(=O)c1cnc(Nc2cc(C)nc(C)n2)cc1Nc1cc(C)c(C2CC2)cc1N(C)S(C)(=O)=O [Example 121] | > 10 | > 10
CCONC(=O)c1cnc(Nc2ccc(CO)cn2)cc1Nc1ccc(C2CC2)cc1N(C)S(C)(=O)=O [Example 122, 4-((4-cyclopropyl-2-(N-methylmethanesulfonamido)phenyl)amino)-N-ethoxy-6-((5-(hydroxymethyl)pyridin-2-yl)amino)nicotinamide] | > 10 | > 10
CCONC(=O)c1cnc(Nc2nc(C)cc(C)n2)cc1Nc1ccc(C2CC2)cc1N(C)S(C)(=O)=O [Example 123, 4-((4-cyclopropyl-2-(N-methylmethanesulfonamido)phenyl)amino)-6-((4,6-dimethylpyrimidin-2-yl)amino)-N-ethoxy nicotinamide] | > 10 | > 10
CCONC(=O)c1cnc(Nc2ncccn2)cc1Nc1ccc(C2CC2)cc1N(C)S(C)(=O)=O [Example 124, 4-((4-cyclopropyl-2-(N-methylmethanesulfonamido)phenyl)amino)-N-ethoxy-6-(pyrimidin-2-ylamino)nicotinamide] | > 10 | > 10
CCONC(=O)c1cnc(Nc2ccnn2C)cc1Nc1ccc(N2CCOCC2)cc1N(C)S(C)(=O)=O [Example 135] | > 10 | > 10
CCONC(=O)c1cnc(Nc2ccn(C)n2)cc1Nc1ccc(N2CCOCC2)cc1N(C)S(C)(=O)=O [Example 137] | > 10 | > 10
CCONC(=O)c1cnc(Nc2cnn(C)c2)cc1Nc1ccc(C2CC2)cc1N(C)S(C)(=O)=O [Example 140, 4-((4-cyclopropyl-2-(N-methylmethanesulfonamido)phenyl)amino)-N-ethoxy-6-((1-methyl-1H-pyrazol-4-yl)amino)nicotinamide] | > 10 | > 10
CCONC(=O)c1cnc(Nc2cc(C)ccn2)cc1Nc1ccc(C2CC2)cc1N(C)S(C)(=O)=O [Example 147, 4-((4-cyclopropyl-2-(N-methylmethanesulfonamido)phenyl)amino)-N-ethoxy-6-((4-methylpyridin-2-yl)amino)nicotinamide] | > 10 | > 10
CCONC(=O)c1cnc(Nc2ccc(C)nc2)cc1Nc1ccc(C2CC2)cc1N(C)S(C)(=O)=O [Example 148, 4-((4-cyclopropyl-2-(N-methylmethanesulfonamido)phenyl)amino)-N-ethoxy-6-((6-methylpyridin-3-yl)amino)nicotinamide] | > 10 | > 10
CCONC(=O)c1cnc(Nc2cc(C)nc(C)n2)cc1Nc1cc(Cl)c(C2CC2)cc1N(C)S(C)(=O)=O [Example 149] | > 10 | > 10
CCONC(=O)c1cnc(NC(=O)C2CC2)cc1Nc1cc(Cl)c(C2CC2)cc1N(C)S(C)(=O)=O [Example 150, 4-((5-chloro-4-cyclopropyl-2-(N-methylmethanesulfonamido)phenyl)amino)-6-(cyclopropylcarboxamido)-N-ethoxy nicotinamide] | > 10 | > 10
CCONC(=O)c1cnc(Nc2ccc(C3CC3)cn2)cc1Nc1ccc(Cl)cc1N(C)S(C)(=O)=O [Example 152, 4-((4-chloro-2-(N-methylmethanesulfonamido)phenyl)amino)-6-((5-cyclopropylpyridin-2-yl)amino)-N-ethoxy nicotinamide] | > 10 | > 10
CCONC(=O)c1cnc(Nc2nccs2)cc1Nc1ccc(C2CC2)cc1N(C)S(C)(=O)=O [Example 158, 4-((4-cyclopropyl-2-(N-methylmethanesulfonamido)phenyl)amino)-N-ethoxy-6-(thiazol-2-ylamino)nicotinamide] | > 10 | > 10
CCONC(=O)c1cnc(Nc2ccnn2C)cc1Nc1ccc(C2CC2)cc1N(C)S(C)(=O)=O [Example 161, 4-((4-cyclopropyl-2-(N-methylmethanesulfonamido)phenyl)amino)-N-ethoxy-6-((1-methyl-1H-pyrazol-5-yl)amino)nicotinamide] | > 10 | > 10
C#Cc1ccc(Nc2cc(Nc3ncccn3)ncc2C(=O)NOCC)c(N(C)S(C)(=O)=O)c1 [Example 163, N-ethoxy-4-((4-ethynyl-2-(N-methylmethanesulfonamido)phenyl)amino)-6-(pyrimidin-2-ylamino)nicotinamide] | > 10 | > 10
C#Cc1ccc(Nc2cc(Nc3nc(C)cc(C)n3)ncc2C(=O)NOCC)c(N(C)S(C)(=O)=O)c1 [Example 164, 6-((4,6-dimethylpyrimidin-2-yl)amino)-N-ethoxy-4-((4-ethynyl-2-(N-methylmethanesulfonamido)phenyl)amino)nicotinamide] | > 10 | > 10
CCONC(=O)c1cnc(Nc2nc(C)cs2)cc1Nc1ccc(C)cc1N(C)S(C)(=O)=O [Example 165, N-ethoxy-4-((4-methyl-2-(N-methylmethanesulfonamido)phenyl)amino)-6-((4-methylthiazol-2-yl)amino)nicotinamide] | > 10 | > 10
CCONC(=O)c1cnc(Nc2ccnn2C)cc1Nc1cc(F)c(C2CC2)cc1N(C)S(C)(=O)=O [Example 168, 4-((4-cyclopropyl-5-fluoro-2-(N-methylmethanesulfonamido)phenyl)amino)-N-ethoxy-6-((1-methyl-1H-pyrazol-5-yl)amino)nicotinamide] | > 10 | > 10
CCONC(=O)c1cnc(Nc2ncccn2)cc1Nc1cc(F)c(C2CC2)cc1N(C)S(C)(=O)=O [Example 169, 4-((4-cyclopropyl-5-fluoro-2-(N-methylmethanesulfonamido)phenyl)amino)-N-ethoxy-6-(pyrimidin-2-ylamino)nicotinamide] | > 10 | > 10
CCONC(=O)c1cnc(Nc2ncc(C)s2)cc1Nc1ccc(OC)cc1N(C)S(C)(=O)=O [Example 172, N-ethoxy-4-((4-methoxy-2-(N-methylmethanesulfonamido)phenyl)amino)-6-(5-methylthiazol-2-ylamino)nicotinamide] | > 10 | > 10
CCONC(=O)c1cnc(Nc2cc(C)nc(C)n2)cc1Nc1ccc(Cl)cc1N(C)S(=O)(=O)C1CC1 [Example 184] | > 10 | > 10
CCONC(=O)c1cnc(Nc2cc(C)nc(C)c2)cc1Nc1ccc(C2CC2)cc1N(C)S(C)(=O)=O [Example 221] | > 10 | > 10
CCONC(=O)c1cnc(Nc2ncc(F)cc2F)cc1Nc1cc(F)c(C(C)C)cc1N(C)S(C)(=O)=O [Example 228, 6-((3,5-difluoropyridin-2-yl)amino)-N-ethoxy-4-((5-fluoro-4-isopropyl-2-(N-methylmethanesulfonamido)phenyl)amino)nicotinamide] | > 10 | > 10
CCONC(=O)c1nnc(Nc2cc(C)nc(C)n2)cc1Nc1cccc(-c2ncc(C)cn2)c1OC [Example 276, 6-((2,6-dimethylpyrimidin-4-yl)amino)-N-ethoxy-4-((2-methoxy-3-(5-methylpyrimidin-2-yl)phenyl)amino)pyridazine-3-carboxamide] | > 10 | > 10
